Assay results published in patent publication US20200032249A1, “LABELING, ISOLATION, & ANALYSIS OF RNA FROM RARE CELL POPULATIONS” (priority 2017, published 2020).
Like-named read-outs stand apart in the source and are kept apart here.

How the values were obtained:
[1] = tested on: CD/UPRT-expressing MDA231 cells; experiment: expression of representative human genes in mouse lung lysates by RT-PCR; format: in vivo; details: 250 mg/kg, 8 h, mouse lungs
Method: FIG. 5 a-e. Flura-tagging enables transcriptional profiling from micrometastatic lung xenografts. FIG. 5a—Representative H & E stained sections of mouse lungs harboring micrometastases (arrows) used in Flura-tagging experiments. […] Scale bar=2 mm (top), 100 μM (bottom). FIG. 5b—Representative micrometastasis in the context of lung vasculature. MDA231 cells were stained with anti-GFP antibody, blood vessels with anti-CD31 antibody and nuclei (DNA) with Hoechst 33258. Scale bar=50 μM. FIG. 5c—Quantification of the number of cells per micrometastasis per tissue section in engrafted lungs of mice used in the Flura-tagging experiments. The number of nuclei in individual micrometastases in lung sections from 16 separate mice were counted. […] Expression of the indicated representative genes in the lung lysates containing control MDA231 cells or MDA231 cells expressing CD/UPRT and treated with 250 mg/kg 5-FC for 8 h, was measured by RT-PCR using human specific primers (n=3). […] FIG. 5e—Flow cytometric quantification of the number of RFP+ MDA231 cells in mouse lung in the Flura-tagging experiments. […]
Mouse experiments were performed following the protocols approved by the MSKCC Institutional Animal Care and Use Committee (IACUC). […] Proliferation of injected cancer cells were quantified using bioluminescence imaging following retroorbital injection of luciferin. […]

CD/UPRT-expressing cells = format: cell-based; details: human
Method: FIG. 2a-b. Flura-tagging has minimal cytotoxicity. FIG. 2a—Effect of Flura-tagging on stress granule formation. MDA231 cells were treated with 5-FC for the indicated times, and the formation of stress granules was detected by G3BP immunostaining. Control cells were either treated with water or sodium arsenite (Arsenite) for one hour. Arrows indicate stress granules (n=3). Scale bar=20 μM. FIG. 2b—Effect of Flura-tagging on transcription. RNA expression in control cells was compared to CD/UPRT-expressing cells treated with the indicated concentrations of 5-FC for 4 h or 12 h. Each dot represents a gene, with the outer/lighter gray dots indicating genes showing more than 2-fold differential expression, as determined by DESeq2 (n=2). The dotted line represents the four-fold cutoff mark.
For a more sensitive analysis of potential alterations caused by Flura-tagging, we investigated the transcriptional changes occurring under these experimental conditions. We compared the transcriptome of cells treated with two different concentrations of 5-FC (50 μM and 250 μM) at two different time points (4 h and 12 h) with that of control cells, using RNA-seq. […] This number increased to 190, 1325 and 1965 genes in cells treated with 250 μM 5-FC for 4 h, 50 μM 5-FC for 12 h, and 250 μM 5-FC for 12 h, respectively (FIG. 2b). Moreover, a majority of these differences in gene expression were within a four-fold range (FIG. 2b).
RNA-seq library preparation. Total RNA was purified using Qiagen RNeasy Mini Kit. Quality and quantity was checked by Agilent […]. 10 ng RNA per sample was used for library construction with Sample Prep Kit v2 (Illumina) according to manufacturer's instructions. Libraries were multiplex sequenced libraries on a Hiseq2500 platform, and more than 25 million raw paired-end reads were generated for each sample.
Reads were quality checked using FastQC v0.11.5 and mapped to a human (hg19) or hybrid human-mouse (hg19-mm10) genome with STAR2.5.2b (22) using standard settings for paired reads. Uniquely mapped reads were assigned to annotated genes with HTSeq v0.6.1p1 (23) with default settings. Read counts were normalized by library size, and differential gene expression analysis based on a negative binomial distribution was performed using DESeq2 v3.4 (24). In general, thresholds for differential expression were set as follows: adjusted p-value<0.05, fold change >2.0 or <0.5, and average normalized read count >10. Genes were considered detectable in the immunoprecipitation samples with a normalized read count >100. Gene set enrichment analysis was performed using GSVA v3.4 (25) and previously curated gene sets (26): HALLMARK_TGF_BETA_SIGNALING, HALLMARK_HEDGEHOG_SIGNALING, HALLMARK_WNT_BETA_CATENIN_SIGNALING, HALLMARK_PI3_K_AKT_MTOR_SIGNALING, HALLMARK_NOTCH_SIGNALING, HALLMARK_KRAS_SIGNALING_UP, CORDENONSI_YAP_CONSERVED_SIGNATURE, HALLMARK_IL6_JAK_STAT3_SIGNALING.

SMILES: Nc1nc(=O)[nH]cc1F [5-FC, 5-fluorocytosine]
- range of expression of representative human genes vs control MDA231 cells [1]: ≤ 2 fold
- genes with more than 4-fold difference (CD/UPRT-expressing cells; 4 h, 50 μM): 10 genes
- genes with statistically significant differences in expression vs control cells (CD/UPRT-expressing cells; 4 h, 50 μM): 113 genes
- genes with more than 4-fold difference (CD/UPRT-expressing cells; 4 h, 250 μM): 15 genes
- genes with statistically significant differences in expression vs control cells (CD/UPRT-expressing cells; 4 h, 250 μM): 190 genes
- genes with more than 4-fold difference (CD/UPRT-expressing cells; 12 h, 50 μM): 102 genes
- genes with statistically significant differences in expression vs control cells (CD/UPRT-expressing cells; 12 h, 50 μM): 1325 genes
- genes with more than 4-fold difference (CD/UPRT-expressing cells; 12 h, 250 μM): 182 genes
- genes with statistically significant differences in expression vs control cells (CD/UPRT-expressing cells; 12 h, 250 μM): 1965 genes
